Reference: patent US9504729B2, “Antiangiogenic small molecules and methods of use” (The United States of America, as represented by the …, priority 2009, dated 2016)
Structures can show the parent of a compound that is named as a salt. Where two headings read alike, the source gives them in different places.

How the values were obtained:
endothelial cells = assay: Primary screening: cell-based growth HTS and tube formation HTS (bioactivity class)
Protocol: All assays were performed in clear bottom black 96-well plates. The plates were always arranged to include a column for negative controls (column 1), a column for positive controls (column 12), and 10 columns for evaluation of 80 compounds. In order to increase stringency and avoid false positives in the HTS assays, all compounds were tested at a low final concentration of 1 μM.
In summary, 1,000 cells/well were seeded in the 96-well plates described above. Cells in columns 2-12 were seeded in 10% FBS and cells in column 1 (negative control) were seeded in 0% FBS. Small molecules (80 per plate) were added in columns 2-11 at a final concentration of 1 μM (both positive and negative controls were exposed to the same percentage of DMSO in wells containing test compounds). The fluorescence emitted by every well was measured spectrophotometrically (Infinite M200, TECAN®, Mannedorf, Switzerland) every 24 hours for 5-7 days.
In summary, 20,000 cells/well were seeded on top of 50 μl of pre-gelled GELTREX® gel matrix (Invitrogen, Carlsbad, Calif.). All cells were seeded in 10% FBS. […] Small molecules (80 per plate) were added to columns 2-11 at a final concentration of 1 μM (both positive and negative controls were exposed to the same percentage of DMSO in wells containing test compounds). Plates were incubated for 5-7 hours and automatically imaged with the help of an epifluorescence microscope (Axiovert® 200M, Zeiss) equipped with a motorized stage and AxioVision® (Zeiss) software.
For hit detection, a stringent threshold (sigma 3.5) was applied to avoid false positives.

PAE cells [1] = assay: Growth dose response (IC50) in PAE; format: cell-based, porcine; settings: read-out: Growth IC50 (M) in PAE
Text: FIG. 6: Dose response curves were constructed for all the SMs of interest using PAE cells. Data were fitted to non-linear sigmoid curves using GraphPad Prism (GraphPad Software, Inc., La Jolla, Calif.).
Dose response curves were constructed for all the SM of interest using PAE cells. Data were fitted to non-linear sigmoid curves using GraphPad Prism (GraphPad software, Inc.).

PAE = assay: Apoptosis in PAE; format: cell-based, porcine
in vitro = settings: pig
KDR(VEGFR2) = KDR(VEGFR2) (Homo sapiens, UniProt P35968); assay: SelectScreen kinase activity profiling, KDR(VEGFR2); format: biochemical; settings: VEGFR2 receptor
Text: To characterize the RTK inhibitory activity of the antiangiogenic SMs described herein, 36 compounds were chosen and screened using Invitrogen's SelectScreen® kinase activity profiling service (described on-line at tools.invitrogen.com/content.cfm?pageid=10413#selection). VEGFR1 and FGFR2 RTK inhibitory activities were studied. […] Overall, a small minority of the SMs tested had any substantial kinase inhibitory activity. This observation supports a mechanism of antiangiogenic action other than RTK inhibition for most of the SMs described herein.

PAE cells [2] = system: PAE cells

Chain of KDR(VEGFR2) (P35968 20-1356): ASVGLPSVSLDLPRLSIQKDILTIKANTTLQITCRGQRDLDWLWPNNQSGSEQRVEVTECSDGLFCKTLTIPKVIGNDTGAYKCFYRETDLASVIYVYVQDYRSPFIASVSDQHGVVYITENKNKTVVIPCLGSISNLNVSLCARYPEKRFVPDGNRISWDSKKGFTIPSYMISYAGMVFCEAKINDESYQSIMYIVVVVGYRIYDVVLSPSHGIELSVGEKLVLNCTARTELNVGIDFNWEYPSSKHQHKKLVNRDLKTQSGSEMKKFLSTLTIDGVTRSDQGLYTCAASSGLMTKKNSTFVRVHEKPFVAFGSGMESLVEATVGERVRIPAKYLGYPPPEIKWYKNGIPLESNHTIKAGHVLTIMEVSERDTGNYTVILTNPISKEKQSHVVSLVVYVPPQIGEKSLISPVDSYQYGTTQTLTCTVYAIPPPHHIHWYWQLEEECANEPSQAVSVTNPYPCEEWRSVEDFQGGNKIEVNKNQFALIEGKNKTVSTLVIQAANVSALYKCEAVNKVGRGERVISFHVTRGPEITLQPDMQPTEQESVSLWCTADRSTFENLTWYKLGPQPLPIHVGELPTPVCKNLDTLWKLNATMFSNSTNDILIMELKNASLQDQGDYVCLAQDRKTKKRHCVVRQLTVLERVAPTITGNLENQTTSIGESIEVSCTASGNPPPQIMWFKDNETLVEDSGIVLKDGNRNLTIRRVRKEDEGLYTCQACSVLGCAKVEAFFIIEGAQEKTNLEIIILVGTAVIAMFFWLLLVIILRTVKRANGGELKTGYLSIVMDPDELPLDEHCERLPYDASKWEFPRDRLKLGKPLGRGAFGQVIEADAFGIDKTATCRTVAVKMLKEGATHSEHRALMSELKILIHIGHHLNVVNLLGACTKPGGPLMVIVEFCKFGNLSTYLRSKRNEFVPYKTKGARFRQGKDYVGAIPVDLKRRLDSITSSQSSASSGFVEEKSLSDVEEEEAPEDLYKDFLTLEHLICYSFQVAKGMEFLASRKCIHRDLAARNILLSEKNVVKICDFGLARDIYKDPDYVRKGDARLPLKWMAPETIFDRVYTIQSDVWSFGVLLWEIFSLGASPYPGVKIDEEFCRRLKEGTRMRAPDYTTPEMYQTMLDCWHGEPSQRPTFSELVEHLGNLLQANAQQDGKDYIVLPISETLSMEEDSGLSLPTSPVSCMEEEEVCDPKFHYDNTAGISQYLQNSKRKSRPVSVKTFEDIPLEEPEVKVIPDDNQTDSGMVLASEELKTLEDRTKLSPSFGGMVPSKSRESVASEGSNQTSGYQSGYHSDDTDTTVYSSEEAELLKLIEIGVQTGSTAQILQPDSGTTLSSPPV

Compound	IC50 (PAE cells [1]; Sus scrofa, PAE cells) [M]	cytotoxicity (in vitro) [%]	also measured
3-[(2,4- dimethylphenyl)carbamoyl]naphthalen-2- olate; N-(2,4-dimethylphenyl)-3- hydroxynaphthalene-2-carboxamide; nickel(2+) [Compound 37]	–	–	Bioactivity (endothelial cells): 1; IC50 (PAE cells [1]): > 1e-06 M; Apoptosis PAE (RFU) (PAE): 2.037 RFU
CC(=O)O/C(=C1\C[C@H]2[C@@H]3CC=C4C[C@@H](OC(C)=O)CC[C@]4(C)[C@H]3CC[C@]2(C)C1=O)C(F)(F)F [Compound 31, [(3S,8R,9S,10R,13S,14S,16E)-16-(1-acetyloxy-2,2,2-trifluoroethylidene)-10,13-dimethyl-17-oxo-2,3,4,7,8,9,11,12,14,15-decahydro-1H-cyclopenta[a]phenanthren-3-yl]acetate]	0.000506	7.62	–
CS(=O)(=O)Nc1ccc(Nc2c3ccccc3nc3ccccc23)cc1 [Compound 32, N-[4-(acridin-9-ylamino)phenyl]-methanesulfonamide; methanesulfonic acid]	> 1e-06	6.82	–
Cc1cc(Cc2cc(C)cc(C(C)(C)C)c2O)c(O)c(Cc2cc(C)cc(C(C)(C)C)c2O)c1 [Compound 33, 2-tert-butyl-6-[[3-[(3-tert-butyl-2-hydroxy-5-methylphenyl)methyl]-2-hydroxy-5-methylphenyl]methyl]-4-methylphenol]	2.8e-10	7.44	–
CCC1(OC(=O)CN)C(=O)OCc2c1cc1n(c2=O)Cc2cc3ccccc3nc2-1 (stereo not drawn) [Compound 34, 4-Ethyl-3,14-dioxo-3,4,12,14-tetrahydro-1H-pyrano[3′,4′:6,7]indolizino[1,2-b]quinolin-4-yl aminoacetate hydrochloride]	–	10.2	IC50 (PAE cells [1]; Sus scrofa, PAE): 9.92e-12 M
COc1cccc2c(O)c3c(c(N)c12)C(=O)C1=C(C[C@@](O)(C(C)=O)C[C@@H]1OC1CC(N)C(O)C(C)O1)C3=O (stereo partly drawn) [Compound 35, (1S,3S)-3-acetyl-11-amino-1-(4-amino-5-hydroxy-6-methyloxan-2-yl)oxy-3,6-dihydroxy-10-methoxy-2,4-dihydro-1H-tetracene-5,12-dione hydrochloride]	2.41e-11	7.98	–
CCC(=O)OCN1C(=O)C=CC1=O [Compound 39, (2,5-dioxopyrrol-1-yl)methyl propanoate]	–	8.54	type of inhibition (endothelial cell growth and/or tube formation) (endothelial cells; 1 μM): tube formation; RTK inhibitory activity (in words) (KDR(VEGFR2)): showed RTK inhibitory activity
COc1cc2cc(c1Cl)N(C)C(=O)CC(OC(=O)C(C)C)C1(C)OC1C(C)C1CC(O)(NC(=O)O1)C(OC)/C=C/C=C(\C)C2 (stereo not drawn) [Compound 56, Maytansinol isobutyrate or 4,24-Dioxa-9,22-diazatetracyclo[19.3.1.110,14.03,5] hexacosane, maytansine deriv.]	–	7.52	type of inhibition (endothelial cell growth and/or tube formation) (endothelial cells): tube formation
O=[N+]([O-])c1ccc(S(=O)(=O)Cc2ccccc2)c([N+](=O)[O-])c1 [Compound 64, 1-benzylsulfonyl-2,4-dinitrobenzene]	2.79e-10	7.09	type of inhibition (endothelial cell growth and/or tube formation) (endothelial cells; 1 μM): inhibited both endothelial cell growth and tube formation; type of inhibition (endothelial cell growth and/or tube formation) (endothelial cells; 1 μM, listed as NSC 122657): tube formation+growth; cytotoxicity (in words) (PAE cells [2]): without cytotoxicity
OC(c1cc(-c2ccccc2)nc2c1ccc1ccccc12)C1CCCCN1 (stereo not drawn) [Compound 66, (2-phenylbenzo[h]quinolin-4-yl)-piperidin-2-ylmethanol]	4.12e-10	13.1	–
[benzylsulfanyl(sulfoniumylidene) methyl]-(1-pyridin-2- ylethylideneamino)azanide; chlorocopper [Compound 65]	–	–	Bioactivity (endothelial cells; HTS at 1 μM final concentration): 3; IC50 (PAE cells [1]; PAE cells): 1.09e-11 M; Apoptosis PAE (RFU) (PAE; PAE cells): 2.227 RFU
azidobenzene; 1H-indene; prop-1-en-2- ylbenzene [Compound 49]	–	–	Bioactivity (endothelial cells): 2; Apoptosis PAE (RFU) (PAE): 1.235 RFU
